Assay results: patent US20020120008A1, “Life extension of drosophila by a drug treatment” (priority 2000, published 2002)

Legend:
Drosophila [1] = assay: Reproductive activity of Drosophila fed PBA (eggs, adult progeny, progeny weight and size); assay type: in vivo, Drosophila melanogaster
Protocol: (§1) Table 1 is a comparison of weight, size and reproductive ability of Drosophila raised on food with and without 10 mM PBA for 10 days at 25° C., as described in Example 1, infra.
Reproductive signaling in C. elegans and Drosophila also contribute to extend life span (Guarente, L & Kenyon, C. Nature 408, 255-262 (2000)). PBA treatment may slow down reproduction of flies and thus results in the extension of life span. The role of PBA on the reproductive activity of female Drosophila was examined by counting the number of eggs layed, the percentage of eggs yielding adult progeny, and the weight and size of the progeny.

Drosophila [2] = assay: Resistance to paraquat induced stress (survival); assay type: in vivo, Drosophila melanogaster; conditions: sucrose solution containing 20 mM paraquat, FIG. 3C
Protocol: (§2) Stress to an animal can be achieved by starvation or an increase production of free radicals. The effective removal of free radicals or the increase of antioxidant levels reduce stress to the animal and are important in slowing down the ageing process. The failure to repair oxidative damages and the elevation of free radial is known to shorten the life span of animal. Therefore, resistance to stress was measured in PBA fed flies by measuring if they have an increase resistance to the free radical generator, paraquat, and to dry starvation. PBA treated and control flies drank sucrose solution containing 20 mM paraquat were tested for duration of life span (e.g. survival) (FIG. 3C). […] PBA treated and control flies were also put into empty vials to measure their survival on dry starvation (FIG. 3B).

histone deacetylase = conditions: Lea & Randolph 1998; cited from earlier work
histones H3 and H4 = assay: Histone acetylation level by western blot in flies fed PBA; assay type: in vivo, Drosophila melanogaster; conditions: flies fed PBA versus untreated, FIG. 4A and 4B
Description: PBA, an inhibitor of histone deacetylase, is known to enhance acetylation in the tails of histones H3 and H4, which causes the tails to be released from the DNA (Lea et al. Induction of Histone Acetylation and Growth Regulation in Erythroleukemia Cells by 4-phenylbutyrate and Structural Analogs Anticancer Research 19:1971-1976 (1999)). The acetylation of histones changes the binding affinity between histones and DNA, and leads genes to recruit transcription factors and undergo transcription. Using western blots stained with specific antibodies, the level of histone acetylation was measured in Drosophila, with and without PBA treatment. Batches of 100 flies (males+females) were used to prepare histones (Alfageme, C. R., Zweidler, A., Mahowald, A. & Cohen, L. H. Histones of Drosophila embryos J. Biol. Chem. 12, 3729-3736 (1974)). The homogenates of whole flies were centrifuged at 2,500×g for 10 min in a medium containing 0.05 M glycine, 10 mM Tris potassium maleate, 5 mM MgCl2, 10 mM mercaptoethanol, pH 7.3. Isolated nuclei were used to extract histones by HCl treatment. 10 μg samples of histone protein were loaded on a 16.5% polyacrylamide gel for electrophoresis, then transferred to a PVDF membrane (Immobilin-P transfer membrane, Millipore, Bedford, Mass.), followed by hybridization with antibodies to acetylated and nonacetylated H3 and H4 (Upstate Biotechnology, Lake Placid, N.Y.).

Drosophila [3] = assay: Food intake (food dye in alimentary tract), caloric restriction test; assay type: in vivo, Drosophila melanogaster; conditions: overnight feeding, ten flies per group
Protocol: (§3) Caloric restriction increases life span in rodents, worms, and yeast (Guarente, L & Kenyon, C. Nature 408, 255-262 (2000)). Although PBA is odorless and tasteless to human, flies may dislike the smell or taste of the drug, which may cause caloric restriction. To test the issue of possible caloric restriction effects, the intake of food was measured by adding food dye to both the control and PBA containing media. After an overnight feeding, the alimentary tracts of ten flies from each group were dissected out and examined for color. No difference in the alimentary tract of these flies was discernible. Further, the weight and size of the flies were measured after ten days of feeding with or without PBA (Table 1). […] Therefore, the extension of life span observed in Drosophila fed PBA is most likely not due to caloric restriction.

Drosophila [4] = assay: Survival on dry starvation; assay type: in vivo, Drosophila melanogaster; conditions: empty vials, FIG. 3B
Protocol: as §2

Drosophila [5] = assay: Life span of Drosophila fed various concentrations of PBA; assay type: in vivo, Drosophila melanogaster
transcription levels = assay: Verification of changes in transcription levels (RT-PCR / Northern); conditions: 10 mM PBA, 10 days, 29° C.
Protocol: In another embodiment of the invention RT-PCR was be used to verify the changes in transcription levels seen by the difference in hybridization on the membrane arrays. Newly emerged adult flies (males+females) were fed food containing 10 mM PBA, or plain food for 10 days at 29° C., then total RNA was extracted and used to synthesize cDNA. For each PCR reaction, 50 ng of cDNA was used. Primers were designed from the sequence of each gene to detect fragments of between 300 and 600 base pairs (Table 4). PCR reactions were performed with 30 cycles of 94° C. for 1 minute, 55° C. for 1 minute, and 72° C. for 1 minute.
Biochem. Biophys. 301, 34-40 (1993)). Elongation factor1-alpha plays a critical role in maintaining the level of protein synthesis, which normally declines with age (Webster, G. C. & Webster, S. L. Specific disappearance of translatable messenger RNA for elongation factor one in aging Drosophila melanogaster. Mech. Ageing Devel. 24, 335-342). […] Heat shock proteins enhance resistance to stress and extend life span (Tatar, M., Khazaeli, A. A. & Curtsinger, J. W. Chaperoning extended life. Nature 390, 30 (1997); Lithgow, G. J. Temperature, stress response and aging. Rev. Clin. Gerontol. 6, 119-127 (1996)).

Drosophila [6] = assay: Life span of Drosophila fed PBA early or late in life; assay type: in vivo, Drosophila melanogaster
Drosophila EST clones = assay: Differential gene expression on high density membrane arrays; assay type: in vivo, Drosophila melanogaster; conditions: 10 mM PBA, 10 days, 29° C.
Protocol: To investigate the differential pattern of gene activity resulting from PBA treatment, high density membrane arrays containing about 27,000 Drosophila EST clones (Research Genetics, Huntsville, Tenn.) were used. Messenger RNA was prepared from either 10 day old flies that had been treated with 10 mM PBA at 29° C. from emergence onward. A similar preparation was made from untreated flies. These RNA preparations were used as probes on the membrane arrays.
The Smart PCR cDNA synthesis kit (Clontech, Palo Alto, Calif.) was used to synthesize probes for hybridization. Total RNA was prepared from flies (males+females) fed for 10 days at 29° C. with medium containing 10 mM PBA or plain medium. After first strand synthesis of cDNAs by MMLV reverse transcriptase (M-MLV reverse transcriptase, Boehringer Mannheim, Indianapolis, Ind.), the cDNA was amplified by polymerase chain reaction (PCR). The reaction consisted of 95° C. for 1 minute, then 24 cycles of 95° C. for 15 seconds, 65° C. for 30 seconds, and 68° C. for 6 minutes. Probes were prepared by a random primed DNA labeling method with p^32. Filters containing 27,000 Drosophila EST clones (Research Genetics, Huntsville, Tenn.) were prehybridized for 4 hours, then probes were added to hybridize for 16 hours at 58° C. in a buffer containing 1 M NaCl, 0.05M Tris (pH 8.0), 5 mM EDTA, 1% SDS, and 10% Dextran Sulfate. […]

Drosophila [7] = assay: Locomotor activity, negative geotaxis in counter current distribution apparatus; assay type: in vivo, Drosophila melanogaster; conditions: old flies, FIG. 3A
Protocol: Life extension without maintaining physical or mental vigor is undesirable. To examine whether the life span increase by PBA is associated with extended maintenance of vigor, the locomotor activity was measured for young and old flies raised with and without PBA treatment. A known assay of negative geotaxis in a counter current distribution apparatus was measured the locomotor activity of the flies (Benzer, S. Proc. Natl. Acad. Sci. U.S.A. 58, 1112-1119 (1967); FIG. 3A).

Drosophila [8] = assay: Weight and size of flies fed PBA; assay type: in vivo, Drosophila melanogaster
Protocol: as §1, §3

[9] = progeny of flies raised on 10 mM PBA, n = 10
[10] = progeny of flies raised on 10 mM PBA, n = 40
[11] = w^118 flies, medium containing 10 mM PBA, 29° C. (FIG. 1A)
[12] = 10 mM PBA, 10 days, 25° C., n = 10
[13] = 10 mM PBA, 10 days, 25° C., n = 40

O=C([O-])CCCc1ccccc1.[Na+] [PBA, 4-phenylbutyric acid, sodium salt]
egg laying (Drosophila [1]; 3 males + 3 females a vial for 16 hrs, n = 20 vials, 10 mM PBA, 10 days, 25° C.): 70 ± 16 | effect on reproductive activity of female flies (Drosophila [1]; all measurements of Table 1): no detrimental effect | % of eggs yielding adults (Drosophila [1]; n = 20 vials, 10 mM PBA, 10 days, 25° C.): 70 ± 16% | weight of 5 flies, progeny females (Drosophila [1]; [9]): 5.2 ± 0.2 mg | weight of 5 flies, progeny males (Drosophila [1]; [9]): 3.5 ± 0.3 mg | size of fly, progeny female (Drosophila [1]; [10]): 5.5 ± 0.1 mm | size of fly, progeny male (Drosophila [1]; [10]): 4.6 ± 0.2 mm | survival under paraquat induced stress (Drosophila [2]): survived much longer | activity on histone deacetylase (histone deacetylase): inhibits the activity of histone deacetylase | acetylation of histones H3 and H4 (histones H3 and H4): increase of acetylated H3 and H4 | intake of food (colour of alimentary tract) (Drosophila [3]): No difference | resistance to dry starvation (Drosophila [4]): enhanced the resistance to starvation | life span compared to same strain fed on fly medium (Drosophila [5]; Canton-S strain, 10 mM PBA (FIG. 1C)): extended life span | effect on longevity (Drosophila [5]; w^118 flies, lower concentrations of PBA (0.1, 1, 2.5, 5 mM)): no effect on longevity | extension in maximum life span (Drosophila [5]; [11]): 60% | extension in median life span (Drosophila [5]; [11]): about 35% | Fold-change, cytochrome P450-4d1 (CG3656) (transcription levels; induced): 7.2 fold | Fold-change, daughterless (CG5102) (transcription levels; induced): 8.0 fold | Fold-change, dnaJ like2 (CG3061) (transcription levels; induced): 2.9 fold | Fold-change, epididymal secretory protein (CG7291) (transcription levels; induced): 7.5 fold | Fold-change, glutathione S transferase (CG10045) (transcription levels; induced): 4.6 fold | Fold-change, hsc70 (CG4264) (transcription levels; induced): 4.5 fold | Fold-change, hsp60 (CG12101) (transcription levels; induced): 6.7 fold | Fold-change, imaginal disc growth factor1 (CG4472) (transcription levels; induced): 5.3 fold | Fold-change, inebriated (CG15444) (transcription levels; induced): 26.8 fold | Fold-change, mitochondrial phosphate carrier protein (CG4994) (transcription levels; induced): 5.1 fold | Fold-change, superoxide dismutase (CG8905) (transcription levels; induced): 51.9 fold | Fold-change, translational elongation factor1 α (CG8280) (transcription levels; induced): 4.1 fold | Fold-change, transportin (CG7398) (transcription levels; induced): 8.0 fold | Fold-Change, NADH:ubiquinone reductase 75kD subunit precursor (CG2286) (transcription levels; repressed): 25.3 fold | Fold-Change, calreticulin (GH25160) (transcription levels; repressed): 26.5 fold | Fold-Change, cyclin-dependent kinase9 (GH21935) (transcription levels; repressed): 2.7 fold | Fold-Change, cytochrome c oxidase (FBgn0013674) (transcription levels; repressed): 6.6 fold | Fold-Change, cytochrome c oxidase subunit Vlb (CG14235) (transcription levels; repressed): 2.2 fold | Fold-Change, dnaJ like1 (CG10578) (transcription levels; repressed): 13.2 fold | Fold-Change, fatty acid synthetase (CG3523) (transcription levels; repressed): 2.4 fold | Fold-Change, glyceraldehyde 3 phosphate dehydrogenase1 (CG12055) (transcription levels; repressed): 3.7 fold | Fold-Change, hexokinase (CG3001) (transcription levels; repressed): 5.0 fold | Fold-Change, osa (GH03026) (transcription levels; repressed): 5.0 fold | Fold-Change, peptidyl glycine α hydroxylating monooxygenase (CG3832) (transcription levels; repressed): 1.4 fold | Fold-Change, peroxisomal farnesylated protein (GH03076) (transcription levels; repressed): 1.8 fold | Fold-Change, porin (GH08586) (transcription levels; repressed): 1.4 fold | life span compared with untreated flies (Drosophila [6]; PBA from emergence to 12 days, then plain medium): increased life span compared with untreated flies | life span compared with untreated flies (Drosophila [6]; plain medium for first 12 days, then PBA for remainder of life): increased life span compared with untreated flies | treatment initiated at later age versus young age (Drosophila [6]; virgin female flies (not in males), FIG. 2A): even more effective than the same duration of treatment at young age | number of genes strongly induced (Drosophila EST clones): One hundred | number of genes suppressed (Drosophila EST clones; disappearance of a visible spot): 48 | climbing ability (locomotor activity) (Drosophila [7]): enhanced the climbing ability of old flies significantly | weight of 5 flies, parent females (Drosophila [8]; [12]): 5.1 ± 0.2 mg | weight of 5 flies, parent males (Drosophila [8]; [12]): 3.3 ± 0.4 mg | size of fly, parent female (Drosophila [8]; [13]): 5.5 ± 0.1 mm | size of fly, parent male (Drosophila [8]; [13]): 4.6 ± 0.1 mm | weight and size of the flies versus control (Drosophila [8]; after ten days of feeding with or without PBA): no differences were observed
